Experimental data: patent US8367051B2, “Preparation of functional gel particles with a dual crosslink network” (Carnegie Mellon University, priority 2006, dated 2013)

Test system: HeLa cells
Test: Doxorubicin release from nanogels in cell media, live/dead cell assay
Assay type: cell-based
Details: after addition of glutathione (nanogels) or free Dox (control wells); control 93%; free Dox amount 6-7 times larger
Method: Doxorubicin release from nanogels in cell media. Using standard cell culture techniques, 5×10^4 HeLa cells were added to each well of a 24-well plate and cultured in complete DMEM for 24 h to permit cell attachment to the surface. After this time period, Dox-loaded nanogel (16%, 1.5 mg) was added to four wells (for each nanogel sample), leaving 12 wells with no gel to serve at control. After another 24 hours (48 hours total), the media was removed from 10 of the wells (6 samples, 4 controls) and a live/dead cell assay was performed to measure the toxicity of the gel before addition of the reducing agent. After performing this analysis, glutathione (0.2 mg) dissolved in sterile PBS, was added to each well containing the nanogels and 6 of the control wells. Additionally, free Dox (1 mg) was added to 3 of the control wells. […]
To confirm the non-limiting exemplary concept that Dox-loaded nanogels will be degraded upon the addition of glutathione in cellular media and in turn, the released Dox molecules will kill cancer cells, HeLa cancer cells were incubated with and without 16.4% Dox-loaded nanogels. The cell viability was measured at the 48-hour time point using live/dead staining to estimate the cytotoxicity of the Dox-loaded nanogel before addition of the reducing agent. […]

COc1cccc2c1C(=O)c1c(O)c3c(c(O)c1C2=O)C[C@@](O)(C(=O)CO)C[C@@H]3O[C@H]1C[C@H](N)[C@H](O)[C@H](C)O1.Cl [free Dox, doxorubicin hydrochloride]
cell viability of HeLa cells after Dox release: 7%
